Key:
human rec ACSS2 = biological target: T1, human rec ACSS2 (Homo sapiens, UniProt Q9NR19); assay: Biochemical activity ACSS2 assay (AMP-Glo); details: human recombinant ACSS2, AMP-Glo, 180 min at 37° C.
T1 construct: myc (C); purchased Origene
Protocol: The biochemical activity assay for ACSS2 is based on the detection of released AMP by AMP-Glo ™ Assay kit (Promega, Madison). The assay is run in three steps: the enzymatic reaction in which human rec ACSS2 activates acetate with ATP and Coenzyme A as cosubstrates to acetyI-coA thereby releasing AMP and the detection reaction of AMP by AMP Glo assay in which after the destruction of the residual ATP with AMP Glo reagent 1 produced AMP is converted to ATP that is measured in a luciferase assay system (detection reagent). The ACSS2 activity correlates with the detected luminescence signal.
The assay was performed in Perkin Elmer 384well white Proxiplates in a total volume of 8 µl.
1 nM (fc) C-term myc tagged ACSS2 (human, recombinant, Origene, Rockville, US) and a mixture of 100 µM (fc) ATP, 100 µM (fc) Coenzyme A and 500 µM (fc) sodium acetate were incubated in a total volume of 5 µl (50 mM Hepes, 1 mM Mg-chloride, 150 mM NaCl, 1 mM DTT, 0.01 % (w/v) BSA, 0.3 % DMSO, pH 7.5) in the absence or presence of the test compound (10 dilution concentrations, start conc 30 µM) for 180 min at 37° C. The reaction was stopped and residual ATP destroyed by the addition of 1 µl AMP Glo reagent solution (Promega, Madison, US). After 1 h incubation at room temperature 2 µl of AMP Glo detection reagent was added and the assay was incubated for 0.75 hr at room temperature. The luminescence signal was measured with an Envision multimode reader (Perkin Elmer LAS Germany GmbH) at 700 nm in luminescence mode. The full value used was the inhibitor-free reaction. The pharmacological zero value was generated by addition of ACSS2 inhibitor (Ac-CoA Synthase Inhibitor - CAS 508186-14-9 -Calbiochem) in a final concentration of 5 µM. The inhibitory values (IC50) were determined using the program Assay Analyzer® from GeneData.

ACSS2 = biological target: T2, ACSS2 (Homo sapiens, UniProt Q9NR19); assay: Cellular assay of 14C acetate incorporation into histones (IC50 ACSS2 cellular histone); format: cell-based; details: HCT-15 cells
T2 construct: endogenous fatty acid synthesis activity in the human HCT-15 cancer cell line; endogenous in cells; host or cells: HCT-15
Protocol: This protocol describes a cellular assay capable to quantify endogenous histone acetylation activity in the human HCT-15 cancer cell line following the incorporation of extracellularly administered radiolabeled ^14C acetate with a scintillation based read out on acid extracted histones.
HCT-15 cells are trypsinized, washed and suspended in DMEM culture medium supplemented with penicillin/streptomycin (100 U/mL), sodium pyruvate (1 mM), and 10% FBS
Compounds serial dilutions are prepared in 96-well V-bottom microplate from 10 mM stock solutions in DMSO. From these dilutions 0.5 µl are transferred to a fresh plate including pure DMSO as negative control. The dilutions are prepared such, that the final concentration in the assay is 1/400 of the concentration in the serial dilution. The final DMSO concentration in the assay is 0.25 %.
The cell suspension is seeded at densities of 2x10^5 cells per 170 µl into individual wells of a 96 well plate each containing 0.5 µl aliquots of compound serial dilutions and are kept for 1h in a cell incubator. To each well 30 µL of a mixture containing 0.5 mCi/mL of ^14C-acetate with full medium are added. Then, the wells are incubated for 3 hrs in the cell incubator.
Further steps of the procedure should be conducted on ice or instrumentations precooled to 4° C. Cells are sedimented in the 96-well V-bottom microplate by centrifugation (Eppendorf 5804 R) at 1200 rpm for 5 min. The supernatant is removed and the cells are washed twice with 200µL of PBS-NaB (5 mM sodium butyrate) buffer by iterative resuspension and centrifugation. Finally, the cells are resuspended in 50 µL of TEB (PBS-NaB + 0.5 % Triton X-100) and left on ice for 10 minutes. After centrifugation at 2300 rpm for 10 minutes at 4° C. the supernatant is removed, the remaining pellet is suspended in 50 µL of 0.2 M HCl and incubated over night at 4° C. After incubation the well plate is shaken for 2 minutes in a MTP plate shaker set to 1200 rpm and then centrifuged at 3700 rpm for 10 mins. The lysate is carefully aspirated (~43 µL) and transferred into a white MTP plate (Greiner bio-one 65509). 90 µL of Ultima Gold XR scintillation cocktail are added and the plates are sealed with a transparent cover tape before mixing vigorously using plate shaker set to 1200 rpm. Radioactivity from ^14C incorporation in the wells is measured as CPM count in a MicroBeta Trilux luminescence counter.

T1 sequence (Q9NR19 whole entry): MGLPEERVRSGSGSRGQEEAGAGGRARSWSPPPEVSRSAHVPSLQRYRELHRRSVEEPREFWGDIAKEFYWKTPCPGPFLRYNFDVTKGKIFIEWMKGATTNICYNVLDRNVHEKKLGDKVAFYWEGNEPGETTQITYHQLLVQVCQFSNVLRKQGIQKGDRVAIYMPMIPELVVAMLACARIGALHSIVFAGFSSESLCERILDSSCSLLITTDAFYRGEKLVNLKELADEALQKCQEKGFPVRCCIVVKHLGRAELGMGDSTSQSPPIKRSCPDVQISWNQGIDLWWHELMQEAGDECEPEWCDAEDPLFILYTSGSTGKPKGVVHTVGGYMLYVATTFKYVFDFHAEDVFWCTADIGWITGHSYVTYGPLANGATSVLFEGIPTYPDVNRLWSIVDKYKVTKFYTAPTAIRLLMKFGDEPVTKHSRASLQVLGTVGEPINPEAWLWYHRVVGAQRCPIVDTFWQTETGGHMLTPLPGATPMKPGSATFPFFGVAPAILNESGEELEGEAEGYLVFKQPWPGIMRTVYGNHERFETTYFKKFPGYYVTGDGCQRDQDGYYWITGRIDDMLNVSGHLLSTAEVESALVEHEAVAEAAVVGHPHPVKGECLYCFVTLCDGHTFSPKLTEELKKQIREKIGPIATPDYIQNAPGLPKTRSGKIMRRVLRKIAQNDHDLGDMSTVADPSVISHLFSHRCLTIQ
T2 sequence (Q9NR19 whole entry): as above

Row | Compound | IC50 (human rec ACSS2) [nM] | IC50 (ACSS2) [nM]
1 | CCc1c(C(O)(c2ccccc2)c2nccs2)nc2cc(OC)c(C(=O)Nc3ncn(CC)n3)cn12 (racemic) [Compound 32, 3-ethyl-N-(1-ethyl-1H-1,2,4-triazol-3-yl)-2-[hydroxy(phenyl)(1,3-thiazol-2-yl)methyl]-7-methoxyimidazo[1,2-a]pyridine-6-carboxamide] | 10 to 100 | 
2 | CCc1cc2nc(C(O)(c3ccccc3)c3ccccc3)c(CC)n2cc1C(=O)Nc1ncn(CC)n1 (racemic) [Compound 33, 3,7-diethyl-N-(1-ethyl-1H-1,2,4-triazol-3-yl)-2-(hydroxydiphenylmethyl)imidazo[1,2-a]pyridine-6-carboxamide] | 10 to 100 | 
3 | CCn1cnc(NC(=O)c2cc3c(nc2OC)nc(C(O)(c2ccccc2)c2ccn(C)n2)n3CC)n1 (racemic) [Compound 40, 1-ethyl-N-(1-ethyl-1H-1,2,4-triazol-3-yl)-2-[hydroxy(1-methyl-1H-pyrazol-3-yl)phenylmethyl]-5-methoxy-1 H-imidazo[4,5-b]pyridine-6-carboxamide] | 10 to 100 | 
4 | CCn1cnc(NC(=O)c2cc3c(nc2OC)nc(C(O)(c2ccccc2)c2ccncn2)n3CC)n1 (racemic) [Compound 42, 1-ethyl-N-(1-ethyl-1H-1,2,4-triazol-3-yl)-2-[hydroxy(phenyl)(pyrimidin-4-yl)methyl]-5-methoxy-1H-imidazo[4,5-b]pyridine-6-carboxamide] | 10 to 100 | 1 to 10
5 | CCn1cnc(NC(=O)c2cc3c(nc2OC)nc(C(O)(c2ccccn2)c2cccs2)n3CC)n1 (racemic) [Compound 43, 1-ethyl-N-(1-ethyl-1H-1,2,4-triazol-3-yl)-2-[hydroxy(pyridin-2-yl)(thiophen-2-yl)methyl]-5-methoxy-1H-imidazo[4,5-b]pyridine-6-carboxamide] | 10 to 100 | 10 to 100
6 | CCn1cnc(NC(=O)c2cc3c(nc2OC)nc(C(O)(c2ccccc2)c2cnn(C)c2)n3CC)n1 (racemic) [Compound 48, 1-ethyl-N-(1-ethyl-1H-1,2,4-triazol-3-yl)-2-[hydroxy(1-methyl-1H-pyrazol-4-yl)phenylmethyl]-5-methoxy-1H-imidazo[4,5-b]pyridine-6-carboxamide] | 100 to 10000 | 100 to 10000
7 | CCn1cnc(NC(=O)c2cc3c(nc2OC)nc(C(O)(c2ccccc2)c2ncccn2)n3CC)n1 (racemic) [Compound 49, 1-ethyl-N-(1-ethyl-1H-1,2,4-triazol-3-yl)-2-[hydroxy(phenyl)(pyrimidin-2-yl)methyl]-5-methoxy-1H-imidazo[4,5-b]pyridine-6-carboxamide] | 10 to 100 | 1 to 10
8 | CCn1cnc(NC(=O)c2cc3c(nc2OC)nc(C(O)(c2ccccc2)c2ccccc2OC)n3CC)n1 (racemic) [Compound 57, 1-ethyl-N-(1-ethyl-1H-1,2,4-triazol-3-yl)-2-[hydroxy(2-methoxyphenyl)phenylmethyl]-5-methoxy-1H-imidazo[4,5-b]pyridine-6-carboxamide] | 100 to 10000 | 10 to 100
9 | CCc1c(C(O)(c2ccccc2)c2ccc(C)s2)nc2cc(OC)c(C(=O)Nc3ncn(CC)n3)cn12 (single isomer, unassigned) [Compound 26, 3-Ethyl-2-[hydroxy-(5-methyl-thiophen-2-yl)-phenyl-methyl]-7-methoxy-imidazo[1,2-a]pyridine-6-carboxylic acid (1-ethyl-1H-[1,2,4]triazol-3-yl)-amide] | 100 to 10000 | 
10 | CCc1c(C(O)(c2ccccc2)c2ccc(C)s2)nc2cc(OC)c(C(=O)Nc3ncn(CC)n3)cn12 (single isomer, unassigned) [Compound 27, 3-Ethyl-2-[hydroxy-(5-methyl-thiophen-2-yl)-phenyl-methyl]-7-methoxy-imidazo[1,2-a]pyridine-6-carboxylic acid (1-ethyl-1H-[1,2,4]triazol-3-yl)-amide] | 1 to 10 | 
11 | CCn1cnc(NC(=O)c2cc3c(nc2OC)nc(C(O)(c2ccsc2)c2ccsc2)n3CC)n1 [Compound 38, 1-ethyl-N-(1-ethyl-1H-1,2,4-triazol-3-yl)-2-[hydroxybis(thiophen-3-yl)methyl]-5-methoxy-1H-imidazo[4,5-b]pyridine-6-carboxamide] | 1 to 10 | 

Next, values leading:

Row | IC50 (human rec ACSS2) [nM] | IC50 (ACSS2) [nM] | Compound
12 | 1 to 10 |  | CCn1cnc(NC(=O)c2cc3c(nc2OC)nc(C(O)(c2ccccc2)c2ccc4ccccc4n2)n3CC)n1 (racemic) [Compound 35, 1-ethyl-N-(1-ethyl-1H-1,2,4-triazol-3-yl)-2-[hydroxy(phenyl)(quinolin-2-yl)methyl]-5-methoxy-1H-imidazo[4,5-b]pyridine-6-carboxamide]
13 | 1 to 10 |  | CCn1cnc(NC(=O)c2cc3c(nc2OC)nc(C(O)(c2ccccc2)c2ccsc2)n3CC)n1 (racemic) [Compound 39, 1-ethyl-N-(1-ethyl-1H-1,2,4-triazol-3-yl)-2-[hydroxy(phenyl)(thiophen-3-yl)methyl]-5-methoxy-1H-imidazo[4,5-b]pyridine-6-carboxamide]
14 | 1 to 10 | 1 to 10 | CCn1cnc(NC(=O)c2cc3c(nc2OC)nc(C(O)(c2ccccc2)c2nccs2)n3CC)n1 (racemic) [Compound 44, 1-ethyl-N-(1-ethyl-1H-1,2,4-triazol-3-yl)-2-[hydroxy(phenyl)(1,3-thiazol-2-yl)methyl]-5-methoxy-1H-imidazo[4,5-b]pyridine-6-carboxamide]
15 | 1 to 10 | 1 to 10 | CCn1cnc(NC(=O)c2cc3c(nc2OC)nc(C(O)(c2ccccc2)c2cccnn2)n3CC)n1 (racemic) [Compound 45, 1-ethyl-N-(1-ethyl-1H-1,2,4-triazol-3-yl)-2-[hydroxy(phenyl)(pyridazin-3-yl)methyl]-5-methoxy-1H-imidazo[4,5-b]pyridine-6-carboxamide]
16 | 1 to 10 |  | CCn1cnc(NC(=O)c2cc3c(nc2OC)nc(C(O)(c2ccccc2)c2ccccc2C)n3CC)n1 (racemic) [Compound 56, 1-ethyl-N-(1-ethyl-1H-1,2,4-triazol-3-yl)-2-[hydroxy(2-methylphenyl)phenylmethyl]-5-methoxy-1H-imidazo[4,5-b]pyridine-6-carboxamide]
17 | 1 to 10 | 0.01 to 1 | CCn1cnc(NC(=O)c2cc3c(nc2OC)nc(C(O)(c2ccccc2)c2ccc(OC(F)F)cc2F)n3CC)n1 (racemic) [Compound 78, 2-{[4-(difluoromethoxy)-2-fluorophenyl](hydroxy)phenylmethyl}-1-ethyl-N-(1-ethyl-1H-1,2,4-triazol-3-yl)-5-methoxy-1H-imidazo[4,5-b]pyridine-6-carboxamide]
18 | 0.01 to 1 |  | CCn1cnc(NC(=O)c2cc3c(nc2OC)nc(C(O)(c2ccccc2)c2ccccc2)n3C)n1 [Compound 36, N-(1-ethyl-1H-1,2,4-triazol-3-yl)-2-(hydroxydiphenylmethyl)-5-methoxy-1-methyl-1H-imidazo[4,5-b]pyridine-6-carboxamide]
19 | 0.01 to 1 |  | [2H]c1c([2H])c([2H])c(C(O)(c2c([2H])c([2H])c([2H])c([2H])c2[2H])c2nc3nc(OC)c(C(=O)Nc4ncn(CC)n4)cc3n2CC)c([2H])c1[2H] [Compound 37, 1-ethyl-N-(1-ethyl-1H-1,2,4-triazol-3-yl)-2-{hydroxybis[(2,3,4,5,6-^2H5)phenyl]methyl}-5-methoxy-1 H-imidazo[4,5-b]pyridine-6-carboxamide]
